In patent publication US20240109881A1, “Heteroaryl Compounds as Ligand Directed Degraders of IRAK4” (Bristol-Myers Squibb Company, priority 2022, published 2024):

Target: T1, IRAK4 (Homo sapiens, UniProt Q9NWZ3)
T1 construct: endogenous in cells; host or cells: THP-1 cells
T1 sequence (Q9NWZ3 1-460): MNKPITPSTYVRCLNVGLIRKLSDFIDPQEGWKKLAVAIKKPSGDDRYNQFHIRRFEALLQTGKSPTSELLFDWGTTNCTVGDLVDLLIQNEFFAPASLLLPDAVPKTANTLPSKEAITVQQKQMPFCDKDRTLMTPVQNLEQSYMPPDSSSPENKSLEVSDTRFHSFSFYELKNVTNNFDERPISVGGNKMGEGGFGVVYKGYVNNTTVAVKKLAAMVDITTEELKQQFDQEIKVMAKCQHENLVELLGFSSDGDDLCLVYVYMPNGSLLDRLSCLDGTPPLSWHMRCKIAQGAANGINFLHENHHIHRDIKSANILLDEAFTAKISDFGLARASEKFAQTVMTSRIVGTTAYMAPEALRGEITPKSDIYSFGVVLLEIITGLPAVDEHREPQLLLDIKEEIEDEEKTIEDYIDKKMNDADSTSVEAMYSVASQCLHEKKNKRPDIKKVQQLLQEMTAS
Test: LVL THP1 HTRF (THP1 Homogeneous Time Resolved Fluorescence)
Type: cell-based
Conditions: THP1 cells, 18 h incubation with compound; for DC50: read-out: LVL THP1 HTRF EC50
Protocol: Cell culture media was prepared in a tissue culture hood in a sterile environment by adding 10% FBS and 1% Penicillin Streptomycin to 500 mL no phenol red RPMI 1640 media. The media was filtered through a Nalgene Bottle Top Filter and stored at 4° C.
For Homogenous Time Resolved Fluorescence (HTRF) assays, a Cisbio HTRF kit was used, which included: Lysis Buffer #1 4×, Blocking Reagent #3 100×, 20× Antibody 1 (Anti-IRAK4 d2), 20× Antibody 2 (Anti-IRAK4 k), and Detection Buffer.
The THP1 plates were prepared by the following method. For each dosing plate, a duplicate for CTG assay was prepared. Two THP-1 T-175 flasks could be used to plate one 384 well plate. The cells were collected from two T-175 flasks into 200 mL centrifuge tubes and spun down at 1200 rpm for 10 min. The supernatant was removed completely and cells were resuspended in 7.5 mL cell culture media. To 5 μL of the cell suspension was added 25 μL of media and 30 μL of Trypan Blue stain. The cells were counted using countess (automated cell counter, Thermo Fisher Scientific) twice and the viability and live cell count was recorded. The actual cell count was […] the live cell count. Based on the count, a cell suspension was prepared in colorless RPMI media for a final concentration of 7.5e6 cells/mL. Using Standard cassette multidrop combi, 20 μL of the 7.5e6 cells/mL cell stock was added to entire 384 well plate but for top half of column 1 (negative control) The multidrop combi was always primed to achieve a steady flow and washed after use with 20 mL de-ionized water followed by 20 mL alcohol. The cells were incubated in 5% CO2 incubator at 37° C.
Dosing was conducted using the following method. To dose assay plates and CTG plate was added 20 nL of compounds in DMSO using Echo (Beckman Coulter), and the plates were incubated at 37° C. for 18 h. The compound plates were spun at 1200 rpm for 1 min before dosing. The compound plate was sealed and properly stored during incubation.
After dosing, an HTRF assay was conducted using the following method. The treatment plates (IRAK4_HTRF) were centrifuged at 600 g for 10 min. Using CyBio Felix, Automated liquid handler (Analytikjena), 13 μL cell culture media was removed. To all columns, 7.5 μL lysis buffer was added, and an additional 7.5 μL of lysis buffer was added to column 1(top half, negative control). The plate was incubated on a shaker at room temperature for 2 h. The plate was spun down at 600 g for 5 min. Custom 20×IRAK4 Antibody obtained from CISBIO Anti-IRAK4-d2 (acceptor Ab) and Anti-IRAK4-K (donor Ab) were diluted to 1× antibody mix Using a multichannel repeater, 4 μL of 1× antibody mix was added to each wellThe plate was spun down at 600 g for 5 min and incubated in the dark at room temperature for 18 h The next day (after 18 hrs), HTRF assay plate was spun down at 600 g for 5 min and read at 665/615 nm using a Envision plate reader.

SMILES | LVL THP1 HTRF YMIN [%] | DC50 [nM]
C[C@H](C#N)Nc1cc(-n2ncc3cc(C#N)cnc32)ncc1-n1cc([C@H]2CC[C@H](CCN3CCN(c4ccc([C@@]5(C)CCC(=O)NC5=O)nc4)[C@@H](C)C3)CC2)nn1 (single isomer, unassigned) [P-289] | 7.7 | 11.3
C[C@H](C#N)Nc1cc(-n2ncc3cc(C#N)cnc32)ncc1-n1cc([C@H]2CC[C@H](CCN3CCN(c4ccc([C@@]5(C)CCC(=O)NC5=O)nc4)[C@@H](C)C3)CC2)nn1 (single isomer, unassigned) [P-290] | 33.6 | 252
C[C@H](C#N)Nc1cc(-n2ncc3cc(C#N)cnc32)ncc1-n1cc([C@H]2CC[C@](O)(CCN3CCN(c4ccc([C@@]5(C)CCC(=O)NC5=O)cc4)[C@@H](C)C3)CC2)nn1 (single isomer, unassigned) [P-291] | −4.4 | 57.7
C[C@H](C#N)Nc1cc(-n2ncc3cc(C#N)cnc32)ncc1-n1cc([C@H]2CC[C@](O)(CCN3CCN(c4ccc([C@@]5(C)CCC(=O)NC5=O)cc4)CC3)CC2)nn1 (single isomer, unassigned) [P-292] | 7.2 | 32
C[C@H](C#N)Nc1cc(-n2ncc3cc(C#N)cnc32)ncc1-n1cc([C@H]2CC[C@](O)(CCN3CCN(c4ccc([C@@]5(C)CCC(=O)NC5=O)cn4)CC3)CC2)nn1 (single isomer, unassigned) [P-293] | 10.5 | 65.8
C[C@H](C#N)Nc1cc(-n2ncc3cc(C#N)cnc32)ncc1-n1cc([C@H]2CC[C@](O)(CCN3CCN(c4ccc([C@@]5(C)CCC(=O)NC5=O)nc4)CC3)CC2)nn1 (single isomer, unassigned) [P-294] | 76.0 | 1230
C[C@H](C#N)Nc1cc(-n2ncc3cc(C#N)cnc32)ncc1-n1cc([C@H]2CC[C@](O)(CCN3CCN(c4ccc([C@@]5(C)CCC(=O)NC5=O)nc4)CC3)CC2)nn1 (single isomer, unassigned) [P-295] | 39.8 | 350
COc1cc([C@@]2(C)CCC(=O)NC2=O)ccc1N1CCN(CC[C@H]2CC[C@H](c3cn(-c4cnc(-n5ncc6cc(C#N)c(N)nc65)cc4N[C@H](C)C#N)nn3)CC2)C[C@@H]1C (single isomer, unassigned) [P-302] | 3.3 | 10.5
COc1cc([C@@]2(C)CCC(=O)NC2=O)ccc1N1CCN(CC[C@H]2CC[C@H](c3cn(-c4cnc(-n5ncc6cc(C#N)c(N)nc65)cc4N[C@H](C)C#N)nn3)CC2)C[C@@H]1C (single isomer, unassigned) [P-303] | 90.1 | 111
COc1cc([C@@]2(C)CCC(=O)NC2=O)ccc1N1CCN(CC[C@H]2CC[C@H](c3cn(-c4cnc(-n5ncc6cc(C#N)c(N)nc65)cc4N[C@H](C)C#N)nn3)CC2)C[C@H]1C (single isomer, unassigned) [P-304] | 5.0 | 11.9
COc1cc([C@@]2(C)CCC(=O)NC2=O)ccc1N1CCN(CC[C@H]2CC[C@H](c3cn(-c4cnc(-n5ncc6cc(C#N)c(N)nc65)cc4N[C@H](C)C#N)nn3)CC2)C[C@H]1C (single isomer, unassigned) [P-305] | 84.3 | 0.2
C[C@H](C#N)Nc1cc(-n2ncc3cc(C#N)c(N)nc32)ncc1-n1cc([C@H]2CC[C@H](CCN3CCN(c4ccc([C@@]5(C)CCC(=O)NC5=O)nc4)CC3)CC2)nn1 (single isomer, unassigned) [P-306] | 1.5 | 3.7
C[C@H](C#N)Nc1cc(-n2ncc3cc(C#N)c(N)nc32)ncc1-n1cc([C@H]2CC[C@H](CCN3CCN(c4ccc([C@@]5(C)CCC(=O)NC5=O)nc4)CC3)CC2)nn1 (single isomer, unassigned) [P-307] | 86.3 | 6.6
C[C@H](C#N)Nc1cc(-n2ncc3cc(C#N)c(N)nc32)ncc1-n1cc([C@H]2CC[C@H](CCN3CCN(c4ccc([C@@]5(C)CCC(=O)NC5=O)nn4)CC3)CC2)nn1 (single isomer, unassigned) [P-308] | 3.5 | 2.1
C[C@H](C#N)Nc1cc(-n2ncc3cc(C#N)c(N)nc32)ncc1-n1cc([C@H]2CC[C@H](CCN3CCN(c4ccc([C@@]5(C)CCC(=O)NC5=O)nn4)CC3)CC2)nn1 (single isomer, unassigned) [P-309] | 96.8 | 1000
C[C@H](C#N)Nc1cc(-n2ncc3cc(C#N)cnc32)ncc1-n1cc([C@H]2CC[C@H](CCN3CC[C@H]4[C@@H]3CCN4c3ccc([C@@]4(C)CCC(=O)NC4=O)cn3)CC2)nn1 (single isomer, unassigned) [P-312] | 7.9 | 13.2
C[C@H](C#N)Nc1cc(-n2ncc3cc(C#N)cnc32)ncc1-n1cc([C@H]2CC[C@H](CCN3CC[C@H]4[C@@H]3CCN4c3ccc([C@@]4(C)CCC(=O)NC4=O)cn3)CC2)nn1 (single isomer, unassigned) [P-313] | 44.9 | 244
C[C@H](C#N)Nc1cc(-n2ncc3cc(C#N)cnc32)ncc1-n1cc([C@H]2CC[C@H](CCN3CC[C@@H](c4ccc([C@@]5(C)CCC(=O)NC5=O)cc4)C(F)(F)C3)CC2)nn1 (single isomer, unassigned) [P-314] | 6.5 | 21.8
C[C@H](C#N)Nc1cc(-n2ncc3cc(C#N)c(N)nc32)ncc1-n1cc([C@H]2CC[C@H](CCN3CCC(c4ccc([C@@]5(F)CCC(=O)NC5=O)cc4)CC3)CC2)nn1 (single isomer, unassigned) [P-317] | 2.0 | 1.3
C[C@H](C#N)Nc1cc(-n2ncc3cc(C#N)c(N)nc32)ncc1-n1cc([C@H]2CC[C@H](CCN3CCC(c4ccc([C@@]5(F)CCC(=O)NC5=O)cc4)CC3)CC2)nn1 (single isomer, unassigned) [P-318] | 47.8 | 374
C[C@H](C#N)Nc1cc(-n2ncc3cc(C#N)c(N4C[C@H]5C[C@@H]4CO5)nc32)ncc1-n1cc([C@H]2CC[C@H](CCN3CCC(c4ccc([C@@]5(F)CCC(=O)NC5=O)cc4)CC3)CC2)nn1 (single isomer, unassigned) [P-319] | 87.9 | 1000
C[C@H](C#N)Nc1cc(-n2ncc3cc(C#N)cnc32)ncc1-n1cc([C@H]2CC[C@H](CCN3C[C@@H]4CN(c5ccc(N6CCC(=O)NC6=O)cc5)C[C@@H]4C3)CC2)nn1 (single isomer, unassigned) [P-323] | 12.0 | 96.7
C[C@H](C#N)Nc1cc(-n2ncc3cc(C#N)cnc32)ncc1-n1cc([C@H]2CC[C@H](CCN3CC[C@H]4[C@@H]3CCN4c3ccc(C4CCC(=O)NC4=O)cc3)CC2)nn1 (single isomer, unassigned) [P-325] | 1.6 | 3.8
C[C@H](C#N)Nc1cc(-n2ncc3cc(C#N)cnc32)ncc1-n1cc([C@H]2CC[C@H](CCN3CC[C@H](c4ccc([C@@]5(F)CCC(=O)NC5=O)cc4)C[C@H]3C)CC2)nn1 (single isomer, unassigned) [P-326] | 0.3 | 4
C[C@H](C#N)Nc1cc(-n2ncc3cc(C#N)cnc32)ncc1-n1cc([C@H]2CC[C@H](CCN3CC[C@H]4[C@@H]3CCN4c3ccc(C4CCC(=O)NC4=O)cc3)CC2)nn1 (single isomer, unassigned) [P-327] | 2.2 | 2.8
